Assay results as given in patent publication US9695155B2, “Herbicidal substituted pyrimidinyloxy benzene compounds” (E. I. DU PONT DE NEMOURS AND COMPANY, priority 2013, dated 2017).
Like-named read-outs stand apart in the source and are kept apart here.

Key:
[1] = test system: giant foxtail; experiment: Test A preemergence; assay type: in vivo, Setaria faberii
How it was run: (§1)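 Visual 0–100 rating (100 = complete control) taken about 10 d post-treatment relative to untreated checks. Preemergence: directed soil spray on sown loam/sand pots. Postemergence: seedlings 2–10 cm, 1–2 leaf. Non-phytotoxic solvent formulation with surfactant.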

[2] = test system: rice; experiment: Test B flooded paddy test; assay type: in vivo, Oryza sativa; conditions: Flood, 250 g ai/ha, 0 to 100 scale where 0 is no effect and 100 is complete control; for plant injury at 250 g/ha: Oryza sativa, read-out: Plant response rating, Rice
How it was run: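 Compound added straight to paddy water, with pots kept flooded 3 cm above soil, on plants grown to the 2-leaf stage. Visual scoring 0-100 (100 = complete control) against untreated controls after 13 to 15 greenhouse days.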

[3] = test system: corn; experiment: Test A preemergence; assay type: in vivo, Zea mays
How it was run: as §1

[4] = test system: soybean; experiment: Test C preemergence; assay type: in vivo, Glycine max
Source text: (§2) Seeds of plant species selected from blackgrass (Alopecurus myosuroides), Italian ryegrass (Lolium multiflorum), wheat, winter (winter wheat, Triticum aestivum), galium (catchweed bedstraw, Galium aparine), corn (Zea mays), large (Lg) crabgrass (Digitaria sanguinalis), giant foxtail (Setaria faberii), johnsongrass (Sorghum halepense), lambsquarters (Chenopodium album), morningglory (Ipomoea coccinea), yellow nutsedge (Cyperus esculentus), pigweed (Amaranthus retroflexus), ragweed (common ragweed, Ambrosia elatior), soybean (Glycine max), barnyardgrass (Echinochloa crus-galli), oilseed rape (Brassica napus), waterhemp (common waterhemp, Amaranthus rudis), kochia (Kochia scoparia), wild oat (Avena fatua), surinam grass (Brachiaria decumbens), foxtail, green (green foxtail, Setaria viridis), goosegrass (Eleusine indica), bromegrass, downy (downy bromegrass, Bromus tectorum), nightshade (eastern black nightshade, Solanum ptycanthum), cocklebur (common cocklebur, Xanthium strumarium), cupgrass, woolly (woolly cupgrass, Eriochloa villosa), bermudagrass (Cynodon dactylon), sunflower, (common oilseed sunflower, Helianthus annuus), Russian thistle (Salsola kali), and velvetleaf (Abutilon theophrasti) were planted into a blend of loam soil and sand and treated preemergence with test chemicals formulated in a non-phytotoxic solvent mixture which included a surfactant.
(§3) At the same time, plants selected from these crop and weed species and also barley, winter (winter barley, Hordeum vulgare), windgrass (Apera spica-venti), chickweed (common chickweed, Stellaria media), deadnettle (henbit deadnettle, Lamium amplexicaule), and canarygrass (littleseed canarygrass, Phalaris minor) were planted in pots containing Redi-Earth® planting medium (Scotts Company, 14111 Scottslawn Road, Marysville, Ohio 43041) comprising spaghnum peat moss, vermiculite, wetting agent and starter nutrients and treated with postemergence applications of test chemicals formulated in the same manner. Plants ranged in height from 2 to 18 cm (1- to 4-leaf stage) for postemergence treatments. Treated plants and controls were maintained in a greenhouse for 13 to 15 days, after which time all species were compared to controls and visually evaluated. Plant response ratings, summarized in Table C, are based on a scale of 0 to 100 where 0 is no effect and 100 is complete control. A dash (-) response means no test result.

[5] = test system: yellow nutsedge; experiment: Test C preemergence; assay type: in vivo, Cyperus esculentus
Source text: as §2, §3

[6] = test system: velvetleaf; experiment: Test C preemergence; assay type: in vivo, Abutilon theophrasti
Source text: as §2, §3

[7] = test system: pigweed; experiment: Test C preemergence; assay type: in vivo, Amaranthus retroflexus
Source text: as §2, §3

[8] = 125 g ai/ha, 0 to 100 scale where 0 is no effect and 100 is complete control
[9] = 500 g ai/ha, 0 to 100 scale, 0 no effect, 100 complete control, approx. 10 days
[10] = 16 g ai/ha, preemergence, scale 0 to 100 (0 no effect, 100 complete control)
[11] = 62 g ai/ha, preemergence, scale 0 (no effect) to 100 (complete control)
[12] = 125 g ai/ha, preemergence, scale 0 (no effect) to 100 (complete control)
[13] = Preemergence, 31 g ai/ha, scale 0 to 100, 0 no effect, 100 complete control
[14] = 31 g ai/ha, 0 to 100 scale where 0 is no effect and 100 is complete control, visual, approximately 10 days
[15] = Preemergence, 62 g ai/ha, scale 0 to 100, 0 no effect, 100 complete control

Row | SMILES | Plant response rating, Rice [2] | Plant response rating, Foxtail, Giant [1, 8] | Soybean plant response rating [4, 10] | Soybean plant response rating [4, 11] | Soybean plant response rating [4, 12] | Nutsedge, Yellow plant response rating [5, 10] | Nutsedge, Yellow plant response rating [5, 11] | Nutsedge, Yellow plant response rating [5, 12] | Velvetleaf plant response rating [6, 10] | Velvetleaf plant response rating [6, 11] | Velvetleaf plant response rating [6, 12] | Pigweed plant response rating [7, 10] | Pigweed plant response rating [7, 11] | Pigweed plant response rating [7, 12] | further results
1 | FC(F)(F)c1ccn(-c2ccccc2Oc2ncc(Cl)cn2)n1 [Compound 2, 5-chloro-2-[2-[3-(trifluoromethyl)-1H-pyrazol-1-yl]phenoxy]pyrimidine] |  |  |  |  |  |  |  |  |  |  |  |  |  |  | pest or weed control at 125 g/ha ([1]; Setaria faberi, pre-emergence, 240 h, 125 g ai/ha, 0 to 100 scale where 0 is no effect and 100 is complete control, read-out: Foxtail, Giant plant response rating): 80%; pest or weed control at 500 g/ha ([1]; Setaria faberi, pre-emergence, 240 h, 500 g ai/ha, 0 to 100 scale, 0 no effect, 100 complete control, approx. 10 days, read-out: Foxtail, Giant plant response rating): 100%; plant injury at 250 g/ha [2]: 0%; plant injury at 125 g/ha ([3]; Zea mays, pre-emergence, 240 h, 125 g ai/ha, 0 to 100 scale where 0 is no effect and 100 is complete control, read-out: Corn plant response rating): 0%; plant injury at 500 g/ha ([3]; Zea mays, pre-emergence, 240 h, 500 g ai/ha, 0 to 100 scale, 0 no effect, 100 complete control, approx. 10 days, read-out: Corn plant response rating): 30%
2 | Clc1cnc(Oc2ccccc2-n2cc(Cl)cn2)nc1 [Compound 3] | 0 |  |  |  |  |  |  |  |  |  |  |  |  |  | Foxtail, Giant plant response rating [1, 8]: 90; Foxtail, Giant plant response rating [1, 9]: 100; Corn plant response rating [3, 8]: 0; Corn plant response rating [3, 9]: 10
3 | FCc1cccc(Oc2ncc(F)cn2)c1-n1cc(C(F)(F)F)cn1 [Compound 118] | 60 | 100 | 60 | 90 | 95 | 0 | 25 | 70 | 100 | 100 | 100 | 90 | 100 | 100 | Foxtail, Giant plant response rating (0 to 100 scale) ([1]; 31 g ai/ha): 80; Plant response rating, Soybean [4, 13]: 75; Plant response rating, Nutsedge, Yellow [5, 13]: 5; Plant response rating, Velvetleaf [6, 13]: 100; Plant response rating, Pigweed [7, 13]: 100
4 | COc1cnn(-c2c(C#N)cccc2Oc2ncc(Cl)cn2)c1 [Compound 137] | 0 | 90 | 10 | 80 | 85 | 0 | 5 | 10 | 40 | 65 | 85 | 75 | 90 | 100 | Foxtail, Giant plant response rating ([1]; 500 g ai/ha, 0 to 100 scale where 0 is no effect and 100 is complete control): 100
5 | N#Cc1cnn(-c2c(CF)cccc2Oc2ncc(F)cn2)c1 [Compound 151] | 20 | 100 | 35 | 85 | 95 | 0 | 5 | 25 | 85 | 100 | 100 | 100 | 100 | 100 | Plant response rating, Foxtail, Giant [1, 14]: 100
6 | FCc1cccc(Oc2ncc(Cl)cn2)c1-n1cc(Cl)cn1 [Compound 250] | 0 |  |  |  | 90 | 0 |  | 5 | 100 |  | 100 | 85 |  | 100 | Plant response rating, Foxtail, Giant [1, 14]: 30; Foxtail, Giant plant response rating (0 to 100 scale) ([1]; 125 g ai/ha): 100; Plant response rating, Soybean [4, 15]: 65; Plant response rating, Velvetleaf [6, 15]: 100; Plant response rating, Pigweed [7, 15]: 100
7 | N#Cc1cccc(Oc2ncc(Cl)cn2)c1-n1cnc(C(F)(F)F)c1 [Compound 252, 3-[(5-chloro-2-pyrimidinyl)oxy]-2-[4-(trifluoromethyl)-1H-imidazol-1-yl]benzonitrile] |  |  |  |  |  |  |  |  |  |  |  |  |  |  | Foxtail, Giant plant response rating (0 to 100 scale) ([1]; 125 g ai/ha): 100; pest or weed control at 31 g/ha ([1]; Setaria faberi, pre-emergence, 240 h, 31 g ai/ha, 0 to 100 scale where 0 is no effect and 100 is complete control, visual, approximately 10 days, read-out: Plant response rating, Foxtail, Giant): 70%; pest or weed control at 500 g/ha ([1]; Setaria faberi, pre-emergence, 240 h, 500 g ai/ha, 0 to 100 scale where 0 is no effect and 100 is complete control, read-out: Foxtail, Giant plant response rating): 100%; plant injury at 16 g/ha ([4]; Glycine max, pre-emergence, 16 g ai/ha, preemergence, scale 0 to 100 (0 no effect, 100 complete control), read-out: Soybean plant response rating): 65%; plant injury at 125 g/ha ([4]; Glycine max, pre-emergence, 125 g ai/ha, preemergence, scale 0 (no effect) to 100 (complete control), read-out: Soybean plant response rating): 98%; plant injury at 62 g/ha ([4]; Glycine max, pre-emergence, Preemergence, 62 g ai/ha, scale 0 to 100, 0 no effect, 100 complete control, read-out: Plant response rating, Soybean): 95%; pest or weed control at 16 g/ha ([5]; Cyperus, pre-emergence, 16 g ai/ha, preemergence, scale 0 to 100 (0 no effect, 100 complete control), read-out: Nutsedge, Yellow plant response rating): 0%; pest or weed control at 125 g/ha ([5]; Cyperus, pre-emergence, 125 g ai/ha, preemergence, scale 0 (no effect) to 100 (complete control), read-out: Nutsedge, Yellow plant response rating): 60%; pest or weed control at 62 g/ha ([5]; Cyperus, pre-emergence, Preemergence, 62 g ai/ha, scale 0 to 100, 0 no effect, 100 complete control, read-out: Plant response rating, Nutsedge, Yellow): 40%; plant injury at 250 g/ha [2]: 0%; pest or weed control at 16 g/ha ([6]; Abutilon theophrasti, pre-emergence, 16 g ai/ha, preemergence, scale 0 to 100 (0 no effect, 100 complete control), read-out: Velvetleaf plant response rating): 75%; pest or weed control at 125 g/ha ([6]; Abutilon theophrasti, pre-emergence, 125 g ai/ha, preemergence, scale 0 (no effect) to 100 (complete control), read-out: Velvetleaf plant response rating): 100%; pest or weed control at 62 g/ha ([6]; Abutilon theophrasti, pre-emergence, Preemergence, 62 g ai/ha, scale 0 to 100, 0 no effect, 100 complete control, read-out: Plant response rating, Velvetleaf): 100%; pest or weed control at 16 g/ha ([7]; Amaranthus retroflexus, pre-emergence, 16 g ai/ha, preemergence, scale 0 to 100 (0 no effect, 100 complete control), read-out: Pigweed plant response rating): 98%; pest or weed control at 125 g/ha ([7]; Amaranthus retroflexus, pre-emergence, 125 g ai/ha, preemergence, scale 0 (no effect) to 100 (complete control), read-out: Pigweed plant response rating): 100%; pest or weed control at 62 g/ha ([7]; Amaranthus retroflexus, pre-emergence, Preemergence, 62 g ai/ha, scale 0 to 100, 0 no effect, 100 complete control, read-out: Plant response rating, Pigweed): 100%
